In ChEMBL document CHEMBL5252616, “Design, synthesis and biological evaluation of the tumor hypoxia-activated PROTACs bearing caged CRBN E3 ligase ligands” (Bioorg Med Chem, 2023):
The source made the active and inactive calls. No cut-off for these calls is given here.

What was measured:
PC-9 [1] = assay: Induction of apoptosis in human PC-9 cells assessed as apoptotic cells at 0.1 uM incubated for 72 hrs under normoxia condition by Annexin V-FITC/ PI staining based flow cytometry (Rvb= 4.54%); assay type: functional
PC-9 [2] = assay: Induction of apoptosis in human PC-9 cells assessed as live cells at 0.1 uM incubated for 72 hrs under normoxia condition by Annexin V-FITC/ PI staining based flow cytometry (Rvb= 94.53%); assay type: functional
PC-9 [3] = assay: Induction of apoptosis in human PC-9 cells assessed as apoptotic cells at 0.1 uM incubated for 72 hrs under hypoxia condition by Annexin V-FITC/ PI staining based flow cytometry (Rvb= 9%); assay type: functional
PC-9 [4] = assay: Antitumor activity against human PC-9 cells assessed as inhibition of cell viability incubated for 72 hrs under hypoxia condition by CCK8 assay; assay type: functional, cell-based; conditions: PC-9, 72 h
PC-9 [5] = assay: Inhibition of cell migration in human PC-9 cells at 100 nM incubated for 24 hrs under normoxia condition by imaging analysis; assay type: functional, cell-based
[6] = Prodrug conversion in hypoxia condition assessed as nitroreductase mediated active drug N-(4-((3-chloro-4-fluorophenyl)amino)-7-(((S)-tetrahydrofuran-3-yl)oxy)quinazolin-6-yl)-3-(2-(2-(2-((2-(2,6-dioxopiperidin-3-yl)-1,3-dioxoisoindolin-4-yl)oxy)ethoxy)ethoxy)ethoxy)propanamide formation in presence of NADPH as cofactor at 1 uM and measured after 60 mins by UPLC-MS/MS analysis; assay type: ADME; conditions: isolated protein, 1 h
PC-9 [7] = assay: Induction of apoptosis in human PC-9 cells assessed as live cells at 0.1 uM incubated for 72 hrs under hypoxia condition by Annexin V-FITC/ PI staining based flow cytometry (Rvb= 88.19%); assay type: functional
[8] = tested on: Protein cereblon/Epidermal growth factor receptor (Homo sapiens), P00533+Q96SW2 [UNDEFINED MUTATION]; assay: Protac activity at CRBN/EGFR deletion19 mutant in human PC-9 cells assessed as induction of EGFR degradation at 0.5 to 1 uM and measured after 24 hrs under normoxia condition by Western blot analysis; assay type: cell-based; conditions: dose 0.5-1 µM
[9] = tested on: Protein cereblon/Epidermal growth factor receptor (Homo sapiens), P00533+Q96SW2 [UNDEFINED MUTATION]; assay: Protac activity at CRBN/EGFR deletion19 mutant in human PC-9 cells assessed as induction of EGFR degradation at 0.001 to 0.1 uM and measured after 24 hrs under normoxia condition by Western blot analysis; assay type: cell-based; conditions: dose 0.001-0.1 µM
PC-9 [10] = assay: Inhibition of cell migration in human PC-9 cells at 100 nM incubated for 24 hrs under hypoxia condition by imaging analysis; assay type: functional, cell-based
PC-9 [11] = assay: Induction of apoptosis in human PC-9 cells assessed as late apoptotic cells at 0.1 uM incubated for 72 hrs under hypoxia condition by Annexin V-FITC/ PI staining based flow cytometry (Rvb= 4.73%); assay type: functional
[12] = tested on: Protein cereblon/Epidermal growth factor receptor (Homo sapiens), P00533+Q96SW2 [UNDEFINED MUTATION]; assay: Protac activity at CRBN/EGFR deletion19 mutant in human PC-9 cells assessed as induction of EGFR degradation at 0.5 to 1 uM and measured after 24 hrs under hypoxia condition by Western blot analysis; assay type: cell-based; conditions: dose 0.5-1 µM
[13] = Prodrug conversion in hypoxia condition assessed as nitroreductase mediated drug degradation by measuring parent compound remaining in presence of NADPH as cofactor at 1 uM and measured after 60 mins by UPLC-MS/MS analysis; assay type: ADME; conditions: isolated protein, 1 h
PC-9 [14] = assay: Induction of apoptosis in human PC-9 cells assessed as necrotic cells at 0.1 uM incubated for 72 hrs under normoxia condition by Annexin V-FITC/ PI staining based flow cytometry (Rvb= 0.93%); assay type: functional
PC-9 [15] = assay: Induction of apoptosis in human PC-9 cells assessed as early apoptotic cells at 0.1 uM incubated for 72 hrs under hypoxia condition by Annexin V-FITC/ PI staining based flow cytometry (Rvb= 4.27%); assay type: functional
PC-9 [16] = assay: Induction of apoptosis in human PC-9 cells assessed as necrotic cells at 0.1 uM incubated for 72 hrs under hypoxia condition by Annexin V-FITC/ PI staining based flow cytometry (Rvb= 2.81%); assay type: functional
PC-9 [17] = assay: Induction of apoptosis in human PC-9 cells assessed as late apoptotic cells at 0.1 uM incubated for 72 hrs under normoxia condition by Annexin V-FITC/ PI staining based flow cytometry (Rvb= 3.72%); assay type: functional
PC-9 [18] = assay: Induction of apoptosis in human PC-9 cells assessed as early apoptotic cells at 0.1 uM incubated for 72 hrs under normoxia condition by Annexin V-FITC/ PI staining based flow cytometry (Rvb= 0.82%); assay type: functional
PC-9 [19] = assay: Antitumor activity against human PC-9 cells assessed as inhibition of cell viability incubated for 72 hrs under normoxia condition by CCK8 assay; assay type: functional, cell-based; conditions: PC-9, 72 h
[20] = tested on: Protein cereblon/Epidermal growth factor receptor (Homo sapiens), P00533+Q96SW2 [UNDEFINED MUTATION]; assay: Protac activity at CRBN/EGFR deletion19 mutant in human PC-9 cells assessed as induction of EGFR degradation at 0.001 to 0.1 uM and measured after 24 hrs under hypoxia condition by Western blot analysis; assay type: cell-based; conditions: dose 0.001-0.1 µM
[21] = tested on: Protein cereblon/Epidermal growth factor receptor (Homo sapiens), P00533+Q96SW2 [UNDEFINED MUTATION]; assay: Protac activity at CRBN/EGFR deletion19 mutant in human PC-9 cells assessed as induction of EGFR degradation at 0.001 to 1 uM and measured after 24 hrs under hypoxia condition by Western blot analysis; assay type: cell-based; conditions: dose 0.001-1 µM
[22] = tested on: Protein cereblon/Epidermal growth factor receptor (Homo sapiens), P00533+Q96SW2 [UNDEFINED MUTATION]; assay: Protac activity at CRBN/EGFR deletion19 mutant in human PC-9 cells assessed as induction of EGFR degradation at 0.001 to 1 uM and measured after 24 hrs under normoxia condition by Western blot analysis; assay type: cell-based; conditions: dose 0.001-1 µM
[23] = tested on: Protein cereblon/Epidermal growth factor receptor (Homo sapiens), P00533+Q96SW2 [UNDEFINED MUTATION]; assay: Protac activity at CRBN/EGFR deletion19 mutant in human PC-9 cells assessed as induction of EGFR degradation at 100 nM and measured after 24 hrs under normoxia condition by Western blot analysis; assay type: cell-based

Chain of Protein cereblon/Epidermal growth factor receptor (Homo sapiens), P00533+Q96SW2 [UNDEFINED MUTATION] (P00533 whole entry, looked up, stated change not applied): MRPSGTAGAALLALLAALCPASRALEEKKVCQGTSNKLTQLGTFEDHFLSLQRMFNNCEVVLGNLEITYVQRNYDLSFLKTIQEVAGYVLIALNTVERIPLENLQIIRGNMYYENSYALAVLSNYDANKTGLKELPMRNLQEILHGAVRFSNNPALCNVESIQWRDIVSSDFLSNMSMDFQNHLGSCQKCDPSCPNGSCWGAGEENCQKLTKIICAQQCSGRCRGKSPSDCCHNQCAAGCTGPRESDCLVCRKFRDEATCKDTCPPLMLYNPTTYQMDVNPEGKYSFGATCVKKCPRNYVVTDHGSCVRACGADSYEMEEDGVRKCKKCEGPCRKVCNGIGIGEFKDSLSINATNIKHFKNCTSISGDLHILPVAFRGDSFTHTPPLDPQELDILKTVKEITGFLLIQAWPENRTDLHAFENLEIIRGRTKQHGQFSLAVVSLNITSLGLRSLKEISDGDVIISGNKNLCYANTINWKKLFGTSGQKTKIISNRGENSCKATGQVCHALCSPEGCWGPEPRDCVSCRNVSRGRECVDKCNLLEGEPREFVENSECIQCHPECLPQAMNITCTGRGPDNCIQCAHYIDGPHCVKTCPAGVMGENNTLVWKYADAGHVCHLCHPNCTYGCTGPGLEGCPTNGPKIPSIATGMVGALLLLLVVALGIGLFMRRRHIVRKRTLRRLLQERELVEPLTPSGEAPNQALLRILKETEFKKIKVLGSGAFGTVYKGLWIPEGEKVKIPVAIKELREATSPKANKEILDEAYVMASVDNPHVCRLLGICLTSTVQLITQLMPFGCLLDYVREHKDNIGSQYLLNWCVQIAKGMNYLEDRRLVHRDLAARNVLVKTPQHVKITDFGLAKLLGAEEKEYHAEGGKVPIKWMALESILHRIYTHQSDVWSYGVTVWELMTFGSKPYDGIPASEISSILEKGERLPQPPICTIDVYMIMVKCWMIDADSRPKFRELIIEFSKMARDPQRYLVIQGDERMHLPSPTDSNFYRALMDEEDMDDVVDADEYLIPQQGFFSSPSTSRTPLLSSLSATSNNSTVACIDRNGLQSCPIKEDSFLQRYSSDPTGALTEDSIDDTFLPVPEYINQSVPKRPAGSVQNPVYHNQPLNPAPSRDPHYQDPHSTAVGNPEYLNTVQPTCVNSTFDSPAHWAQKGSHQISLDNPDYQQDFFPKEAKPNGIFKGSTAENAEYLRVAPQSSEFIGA
Chain of Protein cereblon/Epidermal growth factor receptor (Homo sapiens), P00533+Q96SW2 [UNDEFINED MUTATION] (Q96SW2 whole entry, looked up, stated change not applied): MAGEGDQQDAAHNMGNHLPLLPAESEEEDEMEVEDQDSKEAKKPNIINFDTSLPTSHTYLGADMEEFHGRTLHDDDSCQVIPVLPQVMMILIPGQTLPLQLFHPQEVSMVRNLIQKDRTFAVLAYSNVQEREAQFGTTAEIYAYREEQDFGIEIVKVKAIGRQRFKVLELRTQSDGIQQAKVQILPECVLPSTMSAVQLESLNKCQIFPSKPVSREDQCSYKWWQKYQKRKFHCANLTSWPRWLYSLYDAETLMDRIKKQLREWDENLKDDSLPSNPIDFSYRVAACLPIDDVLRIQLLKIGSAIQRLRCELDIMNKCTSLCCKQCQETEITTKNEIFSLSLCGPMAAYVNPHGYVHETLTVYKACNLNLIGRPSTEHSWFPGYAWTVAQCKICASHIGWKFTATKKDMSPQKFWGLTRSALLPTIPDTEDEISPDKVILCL

O=C(CCOCCOCCOCCOc1cccc2c1C(=O)N(C1CCC(=O)N(Cc3ccc([N+](=O)[O-])cc3)C1=O)C2=O)Nc1cc2c(Nc3ccc(F)c(Cl)c3)ncnc2cc1O[C@H]1CCOC1 (stereo partly specified)
Activity (PC-9 [1]): 6.26% | Activity (PC-9 [2]): 92.63% | Activity (PC-9 [3]): 17.33% | IC50 (PC-9 [4]): 1090 nM | inhibition (PC-9 [5]): inactive | Drug metabolism [6]: Metabolite_Detected | Activity (PC-9 [7]): 80.78% | Activity [8]: Active | Activity [9]: inactive | inhibition (PC-9 [10]): Active | Activity (PC-9 [11]): 7.96% | Activity [12]: Active | Stability [13]: Unstable | Activity (PC-9 [14]): 1.1% | Activity (PC-9 [15]): 9.37% | Activity (PC-9 [16]): 1.89% | Activity (PC-9 [17]): 2.98% | Activity (PC-9 [18]): 3.28% | IC50 (PC-9 [19]): 1920 nM | Activity [20]: Active

Cn1c(CN2C(=O)CCC(N3C(=O)c4cccc(OCCOCCOCCOCCC(=O)Nc5cc6c(Nc7ccc(F)c(Cl)c7)ncnc6cc5O[C@H]5CCOC5)c4C3=O)C2=O)cnc1[N+](=O)[O-] (stereo partly specified)
Activity (PC-9 [1]): 22.11% | Activity (PC-9 [2]): 75.71% | Activity (PC-9 [3]): 52.36% | IC50 (PC-9 [4]): 610 nM | inhibition (PC-9 [5]): inactive | Drug metabolism [6]: Metabolite_Detected | Activity (PC-9 [7]): 44.8% | Activity [21]: Active | inhibition (PC-9 [10]): Active | Activity (PC-9 [11]): 17.28% | Stability [13]: Unstable | Activity (PC-9 [14]): 2.18% | Activity (PC-9 [15]): 35.08% | Activity (PC-9 [16]): 2.83% | Activity (PC-9 [17]): 11.21% | Activity (PC-9 [18]): 10.9% | Activity [22]: inactive | IC50 (PC-9 [19]): 1100 nM

O=C1CCC(N2C(=O)c3cccc(OCCOCCOCCOCCC(=O)Nc4cc5c(Nc6ccc(F)c(Cl)c6)ncnc5cc4O[C@H]4CCOC4)c3C2=O)C(=O)N1 (stereo partly specified)
IC50 (PC-9 [4]): 1300 nM | Activity [23]: Active | IC50 (PC-9 [19]): 1300 nM
